Experimental data published in patent EP4620955A1, “MC4R ANTAGONIST COMPOUND, PHARMACEUTICAL COMPOSITION AND PHARMACEUTICAL USE THEREOF” (Changchun Genescience Pharmaceutical Co., Ltd., priority 2022, dated 2024).
pIC50: −log10 of the molar value.

What was measured:
[1] = Pharmacokinetic study on the tested compound in SD male rats; type: in vivo; conditions: IV 1 mpk/PO 2 mpk; for AUC / Cmax / clearance / half-life: Sprague-Dawley (SD), rat, plasma
Experimental: On the day of administration, the tested compound was prepared with 5% DMSO + 5% Solutol + 90% Saline as a solvent into a solution for administration for use.
The solution for administration was administered to an intravenous injection IV group at a dose of 1 mg/kg in a concentration of 0.2 mg/mL. The solution for administration was administered to an oral gavage PO group at a dose of 2 mg/kg in a concentration of 0.2 mg/mL. The animals in the PO group were required to fast overnight in advance, drink water freely, and be fed 4 hours after administration. The IV group was not required to fast.
The animals were weighed before administration. On the day of administration, the solution was IV/PO-administered once in an administration amount calculated based on the weight. In the IV group, blood was collected from veins at 0.083 h, 0.25 h, 0.5 h, 1.0 h, 2.0 h, 4.0 h, 8.0 h, and 24 h after administration. In the PO group, blood was collected from veins at 0.25 h, 0.5 h, 1.0 h, 2.0 h, 4.0 h, 6.0 h, 8.0 h, and 24 h after administration. The amount of blood collected was about 0.20 mL. K2-EDTA was used in blood collection tubes as an anticoagulant. The collected blood sample was centrifuged (centrifugation conditions: 6800 g, 6 min, 2°C to 8°C) within 1 h to obtain plasma. The to-be-tested sample was stored in a refrigerator at -80°C before analysis.
The concentration of the tested compound in the plasma of the SD male rats was detected by the validated LC-MS/MS method.

MC4R = molecular target: T1, MC4R (Homo sapiens, UniProt P32245); experiment: Assay of MC4R antagonist activity in cells in vitro (cAMP assay, Melanotan I stimulation); type: cell-based; conditions: flipin-293-MC4 cell line, Melanotan I as agonist
T1 construct: expressed in transfected cells; host or cells: flipin-293-MC4 (Flp-In 293 host, hygromycin selection)
Experimental: Test Example 1: Assay of MC4R antagonist activity in cells in vitro
a. Experimental consumables:
b. Experimental steps • ✔ Cell line: flipin-293-MC4 • ✔ Cell culture medium: DMEM, 10% fetal bovine serum, 1 × PS, 200 µg/mL hygromycin • ✔ Experimental buffer: HBSS, 20 mM HEPES, 0.1% BSA, 500 µM IBMX • ✔ Positive compound: ML00253764 c. Antagonist detection • 1. Digested cells were suspended in the experimental buffer, and then inoculated into the 384-well cell culture plate. • 2. The to-be-detected compound was added to the cell plate, and incubated at 37°C for 10 min. • 3. Melanotan I was added to the cell plate, and incubated at 37°C for 30 min. • 4. Two detection reagents EU cAMP tracer and ulight anti camp were thawed and diluted with a lysis solution in the kit. • 5. The diluted detection reagents were added to the cell plate and incubated at room temperature for 1 h. • 6. Reading was carried out by Envision. (Excitation light: 340 nm, emission light: 615 nm and 665 nm) d. Data analysis • 1. %Inhibition calculation: %Inhibition = (Signalcmpd−SignalAve_VC)/(SignalAve_PC−SignalAve_VC) × 100. [formula] • Signalcmpd: compound signal value; • SignalAve_VC: negative control signal value; • SignalAve_PC: positive control signal value; • %inhibition: inhibition percentage. • 2. Calculation of IC50 of the compound using the nonlinear fitting equation in GraphPad: Y = Bottom + (Top−Bottom)/(1+10^(∧)((LogIC50−X)×HillSlope)) [formula] X: logarithmic value of the concentration of the compound; Y: inhibition percentage

T1 sequence (P32245 whole entry): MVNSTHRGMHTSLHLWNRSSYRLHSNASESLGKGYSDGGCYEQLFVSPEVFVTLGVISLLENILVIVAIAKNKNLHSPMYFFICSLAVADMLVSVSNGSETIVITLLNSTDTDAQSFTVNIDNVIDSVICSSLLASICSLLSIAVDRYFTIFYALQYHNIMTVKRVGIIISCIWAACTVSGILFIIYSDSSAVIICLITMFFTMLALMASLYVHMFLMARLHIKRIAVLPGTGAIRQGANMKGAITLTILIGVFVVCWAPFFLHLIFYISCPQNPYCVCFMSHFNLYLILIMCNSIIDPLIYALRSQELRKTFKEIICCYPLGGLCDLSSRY

SMILES | F [1] | AUC [1] | Cmax [1] | clearance [1] | half-life [1] | pIC50 (MC4R)
COc1cc([C@@H](C)C(=O)N2CC[C@H](Nc3ccc(-c4ncccn4)c(C)n3)C2)c(F)cn1 [Compound 001-1, (R)-2-(5-fluoro-2-methoxypyridine-4-yl)-1-((S)-3-((6-methyl-5-(pyrimidine-2-yl)pyridine-2-yl)amino)pyrrolidine-1-yl)propan-1-one] | 86.8% | 442 ng·h/mL | 338 ng/mL | 65.3 mL/min/kg | 42.6 min | 8.40
COc1cc([C@@H](C)C(=O)N2C[C@H](C)[C@H](Nc3ccc(-c4ncccn4)c(C)n3)C2)c(F)cn1 [Compound 051-1, (R)-2-(5-fluoro-2-methoxypyridine-4-yl)-1-((3 S,4S)-3-methyl-4-(6-methyl-5-(pyrimidine-2-yl)pyridine-2-yl-amino)pyrrolidine-1-yl)propane-1-one] | 52.7% | 317 ng·h/mL | 329 ng/mL | 55.2 mL/min/kg | 15 min | 8.53
COc1cc([C@@H](C)C(=O)N2C[C@@H](Nc3ccc(-c4ncccn4)c(C)n3)C3(CC3)C2)c(F)cn1 [Compound 056-1, (2R)-2-(5-fluoro-2-methoxypyridine-4-yl)-1-[(7S)-7-{[6-methyl-5-(pyrimidine-2-yl)pyridine-2-yl]amino}-5-azaspiro[2.4]heptane-5-yl]propan-1-one] | 61.5% | 566 ng·h/mL | 380 ng/mL | 35.8 mL/min/kg | 53.4 min | 8.37
COc1cc([C@@H](C)C(=O)N2C[C@H](C)[C@H](Nc3ccc(-c4ncccn4)c(C)n3)C2)c(Cl)cn1 [Compound 112, (R)-2-(5-chloro-2-methoxypyridine-4-yl)-1-((3 S,4S)-3-methyl-4-(6-methyl-5-(pyrimidine-2-yl)pyridine-2-yl-amino)pyrrolidine-1-yl)propane-1-one] | 33.8% | 179 ng·h/mL | 157 ng/mL | 62.5 mL/min/kg | 15 min | 8.64
COc1cc([C@@H](C)C(=O)N2C[C@@H](Nc3ccc(-c4cn(C)nn4)c(C)n3)C3(CC3)C2)c(Cl)cn1 [Compound 165, (R)-2-(5-chloro-2-methoxypyridine-4-yl)-1-((S)-7-((6-methyl-5-(1-methyl-1H-1,2,3-triazol-4-yl)pyridine-2-yl)amino)-5-azaspiro[2.4]hept-5-yl)propan-1-one] | 56.0% | 858 ng·h/mL | 577 ng/mL | 22.3 mL/min/kg | 39 min | 8.54
COc1cc([C@@H](C)C(=O)N2C[C@@H](Nc3ccc(-c4cn(C)c(C(C)(C)O)n4)c(C)n3)C3(CC3)C2)c(F)cn1 [Compound 181, (R)-2-(5-fluoro-2-methoxypyridine-4-yl)-1-((S)-7-((5-(2-(2-hydroxypropan-2-yl)-1-methyl-1H-imidazol-4-yl)-6-methylpyridine-2-yl)amino)-5-azaspiro[2.4]hept-5-yl)propan-1-one] |  |  |  |  |  | 8.80
COc1cc([C@@H](C)C(=O)N2C[C@@H](Nc3ccc(-c4cn(C)c(C(C)(C)O)n4)c(C)n3)C3(CC3)C2)c(Cl)cn1 [Compound 182, (R)-2-(5-chloro-2-methoxypyridine-4-yl)-1-((S)-7-((5-(2-(2-hydroxypropan-2-yl)-1-methyl-1H-imidazol-4-yl)-6-methylpyridine-2-yl)amino)-5-azaspiro[2.4]hept-5-yl)propan-1-one] |  |  |  |  |  | 9.07
COc1cc([C@@H](C)C(=O)N2C[C@@H](Nc3ccc(-c4cn(C)c(OC)n4)c(C)n3)C3(CC3)C2)c(Cl)cn1 [Compound 184, (R)-2-(5-chloro-2-methoxypyridine-4-yl)-1-((S)-7-((5-(2-methoxy-1-methyl-1H-imidazol-4-yl)-6-methylpyridine-2-yl)amino)-5-azaspiro[2.4]hept-5-yl)propan-1-one] |  |  |  |  |  | 8.83
COc1cc([C@@H](C)C(=O)N2C[C@@H](Nc3ccc(-c4cn(C)c(OC(F)F)n4)c(C)n3)C3(CC3)C2)c(Cl)cn1 [Compound 186, (R)-2-(5-chloro-2-methoxypyridine-4-yl)-1-((S)-7-((5-(2-(difluoromethoxy)-1-methyl-1H-imidazol-4-yl)-6-methylpyridine-2-yl)amino)-5-azaspiro[2.4]hept-5-yl)propan-1-one] |  |  |  |  |  | 9.26
COc1cc([C@@H](C)C(=O)N2C[C@@H](Nc3ccc(-c4cn5c(n4)CCC5)c(C)n3)C3(CC3)C2)c(F)cn1 [Compound 187, (R)-1-((S)-7-((5-(6,7-dihydro-5H-pyrrolo[1,2-a]imidazol-2-yl)-6-methylpyridine-2-yl)amino)-5-azaspiro[2.4]hept-5-yl)-2-(S-fluoro-2-methoxypyridine-4-yl)propan-1-one] |  |  |  |  |  | 8.47
COc1cc([C@@H](C)C(=O)N2C[C@@H](Nc3ccc(-c4cn5c(n4)CCC5)c(C)n3)C3(CC3)C2)c(Cl)cn1 [Compound 188, (R)-2-(5-chloro-2-methoxypyridine-4-yl)-1-((S)-7-((5-(6,7-dihydro-5H-pyrrolo[1,2-a]imidazol-2-yl)-6-methylpyridine-2-yl)amino)-5-azaspiro[2.4]hept-5-yl)propan-1-one] |  |  |  |  |  | 8.68
COc1cc([C@@H](C)C(=O)N2C[C@@H](Nc3ccc(-c4cn5c(n4)C(F)(F)CC5)c(C)n3)C3(CC3)C2)c(F)cn1 [Compound 189, (R)-1-((S)-7-((5-(7,7-difluoro-6,7-dihydro-5H-pyrrolo[1,2-a]imidazol-2-yl)-6-methylpyridine-2-yl)amino)-5-azaspiro[2.4]hept-5-yl)-2-(5-fluoro-2-methoxypyridine-4-yl)propan-1-one] |  |  |  |  |  | 8.65
COc1cc([C@@H](C)C(=O)N2C[C@@H](Nc3ccc(-c4cn5c(n4)C(F)(F)CC5)c(C)n3)C3(CC3)C2)c(Cl)cn1 [Compound 190, (R)-2-(5-chloro-2-methoxypyridine-4-yl)-1-((S)-7-((5-(7,7-difluoro-6,7-dihydro-5H-pyrrolo[1,2-a]imidazol-2-yl)-6-methylpyridine-2-yl)amino)-5-azaspiro[2.4]hept-5-yl)propan-1-one] |  |  |  |  |  | 8.96
COc1cc([C@@H](C)C(=O)N2CC[C@H](Nc3ccc(-c4cn(C)nn4)c(C)n3)C2)c(Cl)cn1 [Compound 195, (R)-2-(5-chloro-2-methoxypyridine-4-yl)-1-((S)-3-((6-methyl-5-(1-methyl-1H-1,2,3-triazol-4-yl)pyridine-2-yl)amino)pyrrolidine-1-yl)propan-1-one] |  |  |  |  |  | 9.00
COc1cc([C@@H](C)C(=O)N2C[C@@H](Nc3ccc(-c4cn(C(F)F)nn4)c(C)n3)C3(CC3)C2)c(Cl)cn1 [Compound 196, (R)-2-(5-chloro-2-methoxypyridine-4-yl)-1-((S)-7-((S-(1-(difluoromethyl)-1H-1,2,3-triazol-4-yl)-6-methylpyridine-2-yl)amino)-5-azaspiro[2.4]hept-5-yl)propan-1-one] |  |  |  |  |  | 8.31
COc1cc([C@@H](C)C(=O)N2C[C@@H](C)[C@H](Nc3ccc(-c4ncccn4)c(C)n3)C2)c(Cl)cn1 [Compound 198, (R)-2-(5-chloro-2-methoxypyridine-4-yl)-1-((3R,4S)-3-methyl-4-((6-methyl-5-(pyrimidine-2-yl)pyridine-2-yl)amino)pyrrolidine-1-yl)propan-1-one] |  |  |  |  |  | 8.31
COc1cc([C@@H](C)C(=O)N2C[C@@H](Nc3ccc(-c4ncccn4)c(C)n3)C(C)(C)C2)c(Cl)cn1 [Compound 199, (R)-2-(5-chloro-2-methoxypyridine-4-yl)-1-((S)-3,3-dimethyl-4-((6-methyl-5-(pyrimidine-2-yl)pyridine-2-yl)amino)pyrrolidine-1-yl)propan-1-one] |  |  |  |  |  | 6.44
